Experimental data taken from PubChem BioAssay (NCI).
Several values for one entry are separate records, joined by “and”; a condition that tells them apart may be missing. Equal values may be shown once.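 Results reflect a 48-hour exposure of cells in 96-well plates to compound at five concentrations. GI50: concentration for 50% inhibition of growth. TGI is the concentration that stops growth completely.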

Assays:
Test in all cases: inhibition of tumour cell growth, NCI panel, 48 h
COLO 205 colon = test system: COLO 205 colon
EKVX NSCLC = test system: EKVX NSCLC
SK-MEL-28 melanoma = test system: SK-MEL-28 melanoma
SK-OV-3 ovarian = test system: SK-OV-3 ovarian
SN12C renal = test system: SN12C renal
K-562 leukemia = test system: K-562 leukemia
M14 melanoma = test system: M14 melanoma
NCI-H23 lung = test system: NCI-H23 lung
RXF 393 renal = test system: RXF 393 renal
SR leukemia = test system: SR leukemia

SMILES | TGI (COLO 205 colon) | TGI (EKVX NSCLC) | GI50 (SK-MEL-28 melanoma) | TGI (SK-MEL-28 melanoma) | TGI (SK-OV-3 ovarian) | TGI (SN12C renal) | TGI (K-562 leukemia) | TGI (M14 melanoma) | TGI (NCI-H23 lung) | TGI (RXF 393 renal) | GI50 (COLO 205 colon) | GI50 (EKVX NSCLC) | GI50 (SK-OV-3 ovarian) | GI50 (SR leukemia) | TGI (SR leukemia) | GI50 (K-562 leukemia) | GI50 (M14 melanoma) | GI50 (NCI-H23 lung) | GI50 (RXF 393 renal) | GI50 (SN12C renal)
O=S1(=O)N2CN3CN(C2)CN1C3 | > 31.6 µM and 73.8 µM | 823 µM | 40.6 µM | 225 µM | 868 µM | 158 µM | > 31.6 µM and 169 µM | 355 µM | 44.3 µM |  |  |  |  |  |  |  |  |  |  | 
O=[N+]([O-])c1ccc(C2=Nc3ccccc3S(=O)C(c3ccccc3)C2)cc1 (stereo unspecified) | 40 µM | 45.1 µM |  | 48.1 µM | 73.6 µM | 53.7 µM | 34.5 µM | 42 µM | 36.3 µM | 29 µM |  |  |  |  |  |  |  |  |  | 
COc1cccc(/C=C/C(=O)c2ccc3cc(OC)ccc3c2)c1 | 17 µM | 40.8 µM | 12.6 µM | 48.1 µM | 22.7 µM |  | > 50 µM | 41.3 µM | 21 µM |  | 8.13 µM | 13 µM | 10.7 µM | 10.1 µM | > 50 µM | 9.13 µM | 13.6 µM | 11.6 µM |  | 
CCCCC1=CSC(c2ccccc2)=C(c2ccccc2)S1 | > 100 µM | > 100 µM |  | > 100 µM | > 100 µM | > 100 µM | > 100 µM | > 100 µM | > 100 µM |  |  |  |  |  |  |  |  |  |  | 
CCOC(=O)CSc1cc(Cl)c(C)cc1S(=O)(=O)/N=C(/N=C/c1ccc([N+](=O)[O-])s1)NNC | 34.8 µM | 49.2 µM | 16.1 µM | 29.7 µM | 67.1 µM |  |  | 56.8 µM | 37.2 µM | > 100 µM | 16 µM | 19.7 µM | 24.3 µM |  |  |  | 23.1 µM | 14.5 µM | 22 µM | 
CC(C)(C)c1cc(CCC(=O)Nc2ccc(Cl)cc2)[nH]c(=S)n1 | > 100 µM | > 100 µM |  | > 100 µM | > 100 µM | > 100 µM | > 100 µM | > 100 µM | > 100 µM | > 100 µM |  |  |  |  |  |  |  |  |  | 
Nc1nnc2c(-c3ccccc3)[nH]nc2n1 | > 100 µM | > 100 µM |  | > 100 µM |  | > 100 µM | > 100 µM | > 100 µM | > 100 µM | > 100 µM |  |  |  |  | > 100 µM |  |  |  |  | 
COc1cc[c]([Sn]([c]2ccc(OC)cc2)([c]2ccc(OC)cc2)[c]2ccc(OC)cc2)cc1 | 41.8 µM | > 100 µM |  |  | > 100 µM | > 100 µM | 56.1 µM | 36 µM | > 100 µM |  | 18.3 µM | 35 µM | 96.5 µM |  |  | 16.2 µM | 16.7 µM | 23.3 µM |  | > 100 µM
NC(=O)c1ccc2c(c1)-c1nc-2nc2[n-]c(nc3nc(nc4[n-]c(n1)c1ccc(C(N)=O)cc41)-c1ccc(C(N)=O)cc1-3)c1ccc(C(N)=O)cc21.[Co+2] | > 50 µM | > 50 µM | > 50 µM | > 50 µM | > 50 µM | > 50 µM | > 50 µM | > 50 µM | > 50 µM |  | > 50 µM | > 50 µM | > 50 µM | 33.3 µM | > 50 µM | 46.6 µM | 26 µM | > 50 µM |  | > 50 µM
